Assay results: patent EP4076431B1, “COMPOSITION AND METHOD FOR THE PREVENTION AND TREATMENT OF TYPE 2 DIABETES” (Vector Vitale IP LLC, priority 2019, dated 2021)
“And” between values parts separate entries of the source, which are not always exact repeats. Equal values may be shown once.

Tests used:
[1] = Accumulation of metals in liver and kidney tissues, intact rats; format: in vivo; settings: day 1 and day 7 after discontinuation; intraperitoneal
Experimental: The total kidney, liver and muscle homogenates were prepared as follows. Organ excision and homogenization were carried out at a temperature of 1-4°C. Homogenization of tissues was carried out in 50 mM Tris-HCl buffer (pH 7.4) which contained 140 mM NaCl, 1 mM EDTA. The volume of the used buffer in ml was 5 times larger than the mass of isolated organs in grams. The isolated liver was perfused with chilled saline (0.9% NaCl) via the portal vein using a syringe. The minced liver was transferred to a homogenizer with a finely ground Teflon pestle and homogenized in chilled buffer. An isolated pair of kidneys was perfused with chilled saline, released from adipose tissue and minced with scissors. The minced tissue was transferred to a homogenizer with a finely ground Teflon pestle and homogenized in chilled buffer. The total kidney and liver homogenates were centrifuged at 600 g for 15 minutes. The liquid was decanted after the mince settled down and was centrifuged again at 15,000 g for 15 minutes. These two procedures allowed us to get rid of nuclear and mitochondrial debris. Aliquots of the prepared homogenates were frozen in nitrogen (Rybalchenko V.K., Koganov M.M. Structure and function of membrane 1988. - 312 pp).

[2] = Glucose tolerance test; settings: dose 5 mg/kg in a volume of 2 ml, individual animals 1-5
Experimental: Animals that had access only to water 16 hours before the start of the experiment were used in the glucose tolerance test. Rats were anesthetized with intraperitoneal injection of sodium thiopental at a dose of 40 mg/kg. 5 animals were used within the same experimental group. Basal levels of glycaemia were determined in rats, after which the animals were fed 2 ml of aqueous glucose solution at a dose of 3 g/kg. The concentration of glucose was determined 60 minutes after the start of the experiment.
A glucose tolerance test was performed to determine a potential effect of zinc isotope on the dynamics of glucose concentration in the blood flow. Experimental procedure: laboratory animals are given intragastric injections of either normal saline solution or zinc in saline solution (5 mg/kg) in a volume of 2 ml. After that, 60 minutes after the aforementioned injections, the basal level of glucose is measured and a glucose solution is injected in an amount of 3 g/kg in a volume of 2 ml using the same route of administration. The blood glucose levels are measured again 60 minutes after injecting the glucose solution.

[3] = tested on: TGF; assay: Cytokine profile, immunoenzyme method, obesity model: TGF; settings: Table 7, serum
Experimental: (§1) Adipose tissue was crushed using cold scissors then transferred to a homogenizer with a loose-fitting Teflon pestle. The tissue was homogenized using approximately 30 strokes of the pestle in cold homogenization buffer (50 mM Tris-HCl (pH 7.4) containing 130 mM NaCl). Primary homogenate thus obtained was centrifuged at 600 g for 15 minutes. The supernatant was carefully collected and re-centrifuged at 15,000 g for 15 minutes. The supernatant was then frozen and stored at -80°C until the experiments.
(§2) The levels of insulin, interleukins and adipokines were determined using immunoenzyme method (Halenova TI et al. RSC Adv. 2016;6: 100046-55), which was carried out in microplates with a sorption capacity in accordance with the soluble protein test procedure. The antigen solution, previously diluted with 0.1 M NaHCOs buffer, pH 9.6, to a concentration of 10 µg/ml, was incubated in the plate wells for 12 hours at 4°C. Unbound material was removed by washing the wells three times with TBS buffer, first with 0.05% Tween-20, then without Tween-20. Non-specific binding sites were blocked by adding a solution of 5% skim milk or a solution of 1% bovine serum albumin to the plate wells and incubating them for 60 minutes at 37°C. […]
(§3) The absorbance at a wavelength of 492 nm was measured using a µQuant microplate spectrophotometer (BioTek Instruments).

[4] = tested on: IL-1; assay: Cytokine profile, immunoenzyme method, obesity model: IL-1; settings: Table 7, serum
Experimental: as §1, §2, §3

[5] = tested on: IL-6; assay: Cytokine profile, immunoenzyme method, obesity model: IL-6; settings: Table 7, serum
Experimental: as §1, §2, §3

[6] = tested on: IL-4; assay: Cytokine profile, immunoenzyme method, obesity model: IL-4; settings: Table 7, serum
Experimental: as §1, §2, §3

[7] = tested on: IFN-γ; assay: Cytokine profile, immunoenzyme method, obesity model: IFN-γ; settings: Table 7, serum
Experimental: as §1, §2, §3

[8] = tested on: glycated hemoglobin; assay: Glycated hemoglobin, streptozotocin-induced type I diabetes model; settings: Table 22; streptozotocin diabetic rats; 800 µg of zinc per animal orally, 7 doses; n = 10
Experimental: The levels of glycated hemoglobin in whole blood of rats was measured spectrophotometrically in accordance with the established procedure. The assay was performed using a standard assay kit manufactured by Lachema (Czech Republic).
The method for glycated hemoglobin measurement is based on the fact that the stable form of glycohemoglobin (HbA1c) contains 1-deoxy-1-(N-valyl) fructose, which is dehydrated with phosphoric acid to form a colored complex with an absorption spectrum at 433 nm. Neither the labile form of glycohemoglobin nor fetal hemoglobin interferes with the determination of glycated hemoglobin.
Total hemoglobin was measured spectrophotometrically. […] The absorbance was read at a wavelength of 540 nm against the transforming solution. The total hemoglobin fraction was calculated according to the manufacturer's recommendations using the following formula: Hb = (A∗367,7)/(4,92) [formula] where Hb is total hemoglobin, A is optical density of the test sample. […]
Hemolysate was prepared by adding an anticoagulant, 3.8% solution of Na citrate diluted at 1:10, to freshly collected blood. […] The optical density of the samples was measured on a spectrophotometer at a wavelength of 443 nm against distilled water. […]
Concentration of glycohemoglobin was expressed as µmols of fructose per g of hemoglobin (Glycated hemoglobin / Assay kit // Pliva-lachema diagnostica. - 2008. - 10003258.).

[9] = tested on: collagen fibers; assay: Morphometric analysis of liver fibrosis, Van Gieson staining, obesity model; settings: rats eating a standard diet, treated
Experimental: To carry out a histochemical reaction to determine the level of liver fibrosis, Van Gieson's picro-fuchsin method of staining was used. To do this, the sections were first soaked with water and then re-stained with Bömer's hematoxylin for 3-4 minutes. The sections were then rinsed in distilled water and stained with Van Gierson's picro-fuchsin for 3 minutes. Once stained, the sections were rinsed in distilled water, dehydrated in 96% alcohol, cleared in dioxane and xylene, and enclosed in a balsam under a coverslip. […] All parameters were measured using ImageJ software.

[10] = Anthropometric values and food consumption, high-fat diet induced obesity model; settings: Table 3
Excerpt: Before the start of the experiment, animals were maintained on a standard diet of the vivarium. To induce obesity in experimental animals, they were fed high-fat diet which consisted of standard feed (60%), lard (10%), chicken eggs (10%), sucrose (9%), peanuts (5%), dry milk (5%) and sunflower oil (1%) (1%) (see X. H. Shen et al., Exp. Biol. and Med. 235: 47-51 (2010)).
Animals in all groups were weighed once a week after an overnight fast. The amount of feed to be consumed by the animals was determined daily. At the end of a 10-week period of the development of obesity models, 24 hours after the last administration of the zinc isotope solution, animals were removed from their cages and decapitated.
The body mass index (BMI) (the ratio of body weight (g) to the square of body length (cm^2)) was calculated at the end of the experiment.
Animals with an initial weight of 195-205±10 g maintained on the standard diet of the vivarium before performing obesity models were used in the experiments. To induce obesity in experimental animals, they were fed high-fat diet which consisted of standard feed (60%), lard (10%), chicken eggs (10%), sucrose (9%), peanuts (5%), dry milk (5%) and sunflower oil (1%), Shen X. et al., Experimental Biology and Medicine. - 2010. - Nº 235. - P. 47-51.
Animals in all groups were weighed once a week after an overnight fast. The amount of feed to be consumed by the animals was determined daily.
The body mass index (BMI) (the ratio of body weight (g) to the square of body length (cm2)) was calculated at the end of the experiment.

[11] = Blood glucose, streptozotocin-induced type I diabetes model, oral administration; settings: Table 22; streptozotocin diabetic rats; 800 µg of zinc per animal orally, 7 doses every other day; n = 10
Experimental: Number of animals: 10 (males). Animals were housed in cages, 4 per cage, and provided ad libitum access to food and water. To induce diabetes in animals, each animal was given a single injection of streptozotocin solution at a dose of 6 mg per 100 g of animal weight dissolved in 10 mM citrate buffer (pH 4.5) intraperitoneally. The fasted animals were tested for sufficient levels of glycemia two days after induction of diabetes. Rats with blood glucose concentrations within the range >20 mmol/l were used in the experiments.
24 hours later, 7 doses of the test substance were administered to the animals orally. Frequency of administration - every other day.
Dose of administration - 800 µg of zinc per animal.
The glucose concentration in whole blood was measured by the glucose oxidase method using a GlucoDr Auto AGM-4000 blood glucose meter (Allmedicus Co., Ltd., Korea). All procedures were performed according to the manufacturer's instructions
Type I experimental diabetes was induced by a single intraperitoneal injection of streptozotocin solution at a dose of 6 mg per 100 g of animal weight dissolved in 10 mM citrate buffer (pH 4.5). The rats of the control group were administered 10 mM citrate buffer (pH 4.5) by the aforementioned method. The whole blood glucose concentrations were measured two days after induction of diabetes in rats.

[12] = C+zinc: control rats, standard diet
[13] = DIO+zinc: diet-induced obesity rats

## CC(=O)[O-].CC(=O)[O-].[Zn+2] [Zn acetate, Zn acetate (Zn(CH3COO)2), reference compound]
[1]
  accumulation of other metals (manganese, copper) in kidney and liver tissues: within the same concentrations as in the control group of animals
  accumulation of zinc in kidney and liver tissues: significantly increased
[2]; Table 2, blood glucose after glucose 3 g/kg
  60 min (1 h after glucose administration): 7,2 (2×) and 6,9 and 7,3 and 6,8
[2]; Table 2, blood glucose before glucose load, fast overnight
  0 min (1 h after effector administration): 4,6 and 5,2 (2×) and 4,9 and 5,1

## Zinc asparaginate [^64Zne]
[1]
  accumulation of other metals (manganese, copper) in kidney and liver tissues: within the same concentrations as in the control group of animals
  accumulation of zinc in kidney and liver tissues: significantly increased
[3]; C+^64Zne
  Levels, Anti-inflammatory cytokines, TGF: 4.1±0.4 RU/mg protein
[3]; DIO+^64Zne
  Levels, Anti-inflammatory cytokines, TGF: 5.7±0.3 # RU/mg protein
[4]; C+^64Zne: control rats
  Levels, Pro-inflammatory cytokines, IL-1: 3.5±0.7 RU/mg protein
[4]; DIO+^64Zne: diet-induced obesity rats
  Levels, Pro-inflammatory cytokines, IL-1: 4.2±0.4 RU/mg protein
[5]; C+^64Zne
  Levels, Pro-inflammatory cytokines, IL-6: 4.3±0.2 RU/mg protein
[5]; DIO+^64Zne
  Levels, Pro-inflammatory cytokines, IL-6: 5.1±0.4 RU/mg protein
[6]; C+^64Zne
  Levels, Anti-inflammatory cytokines, IL-4: 4.6±0.8 RU/mg protein
[6]; DIO+^64Zne
  Levels, Anti-inflammatory cytokines, IL-4: 5.6±1.6 RU/mg protein
[7]; C+^64Zne
  Levels, Pro-inflammatory cytokines, IFN-γ: 4.6±0.6 RU/mg protein
[7]; DIO+^64Zne
  Levels, Pro-inflammatory cytokines, IFN-γ: 4.1±1.2 RU/mg protein
[8]
  Glycated hemoglobin: 0,51 ± 0,05 µmol fructose/g Hb
[9]
  increase in the area of deposition of collagen fibers: 2 fold
[10]; [12]
  Amount of food consumed: 32 g/day
  Calorie content of food: 490 kJ/day
  Weight gain as of the end of the experiment: 59%
[10]; C+zinc: control rats, standard diet, ^64Zne administration
  BMI: 0.59 g/cm^2
[10]; [13]
  Amount of food consumed: 29 g/day
  Calorie content of food: 823 kJ/day
  Weight gain as of the end of the experiment: 62%
[10]; DIO+zinc: diet-induced obesity rats, ^64Zne 2.25 mg/ml, 2 ml intragastrically every third day, 10th week
  BMI: 0.65 g/cm^2
[11]
  Glucose: 20 ± 3 mM
